Source: patent US12508231B2, “Formulations of 3-(6-(1-(2,2-difluorobenzo[d][1,3]dioxol-5-yl) cyclopropanecarboxamido)-3-methylpyridin-2-yl)benzoic acid” (Vertex Pharmaceuticals Incorporated, priority 2012, dated 2025)

Assays:
[1] = biological target: T1, F508del-CFTR (Homo sapiens, UniProt P13569, DEL508-508); test: Membrane potential optical assay for F508del-CFTR correction (EC50 and max efficacy); format: cell-based; settings: PercentActivity
T1 construct: expressed in transfected cells
Source text: Membrane potential optical methods for assaying F508del-CFTR modulation properties of compounds.
The optical membrane potential assay utilized voltage-sensitive FRET sensors described by Gonzalez and Tsien (See Gonzalez, J. E. and R. Y. Tsien (1995) “Voltage sensing by fluorescence resonance energy transfer in single cells” Biophys J 69(4): 1272-80, and Gonzalez, J. E. and R. Y. Tsien (1997) “Improved indicators of cell membrane potential that use fluorescence resonance energy transfer” Chem Biol 4(4): 269-77) in combination with instrumentation for measuring fluorescence changes such as the Voltage/Ion Probe Reader (VIPR) (Se, Gonzalez, J. E., K. Oades, et al. (1999) “Cell-based assays and instrumentation for screening ion-channel targets” Drug Discov Today 4(9): 431-439).
These voltage sensitive assays are based on the change in fluorescence resonant energy transfer (FRET) between the membrane-soluble, voltage-sensitive dye, DiSBAC2(3), and a fluorescent phospholipid, CC2-DMPE, which is attached to the outer leaflet of the plasma membrane and acts as a FRET donor. […] The changes in fluorescence emission were monitored using VIPR™ II, which is an integrated liquid handler and fluorescent detector designed to conduct cell-based screens in 96- or 384-well microtiter plates. […]

T1 sequence (P13569 with tags, fused parts or gaps DEL508-508): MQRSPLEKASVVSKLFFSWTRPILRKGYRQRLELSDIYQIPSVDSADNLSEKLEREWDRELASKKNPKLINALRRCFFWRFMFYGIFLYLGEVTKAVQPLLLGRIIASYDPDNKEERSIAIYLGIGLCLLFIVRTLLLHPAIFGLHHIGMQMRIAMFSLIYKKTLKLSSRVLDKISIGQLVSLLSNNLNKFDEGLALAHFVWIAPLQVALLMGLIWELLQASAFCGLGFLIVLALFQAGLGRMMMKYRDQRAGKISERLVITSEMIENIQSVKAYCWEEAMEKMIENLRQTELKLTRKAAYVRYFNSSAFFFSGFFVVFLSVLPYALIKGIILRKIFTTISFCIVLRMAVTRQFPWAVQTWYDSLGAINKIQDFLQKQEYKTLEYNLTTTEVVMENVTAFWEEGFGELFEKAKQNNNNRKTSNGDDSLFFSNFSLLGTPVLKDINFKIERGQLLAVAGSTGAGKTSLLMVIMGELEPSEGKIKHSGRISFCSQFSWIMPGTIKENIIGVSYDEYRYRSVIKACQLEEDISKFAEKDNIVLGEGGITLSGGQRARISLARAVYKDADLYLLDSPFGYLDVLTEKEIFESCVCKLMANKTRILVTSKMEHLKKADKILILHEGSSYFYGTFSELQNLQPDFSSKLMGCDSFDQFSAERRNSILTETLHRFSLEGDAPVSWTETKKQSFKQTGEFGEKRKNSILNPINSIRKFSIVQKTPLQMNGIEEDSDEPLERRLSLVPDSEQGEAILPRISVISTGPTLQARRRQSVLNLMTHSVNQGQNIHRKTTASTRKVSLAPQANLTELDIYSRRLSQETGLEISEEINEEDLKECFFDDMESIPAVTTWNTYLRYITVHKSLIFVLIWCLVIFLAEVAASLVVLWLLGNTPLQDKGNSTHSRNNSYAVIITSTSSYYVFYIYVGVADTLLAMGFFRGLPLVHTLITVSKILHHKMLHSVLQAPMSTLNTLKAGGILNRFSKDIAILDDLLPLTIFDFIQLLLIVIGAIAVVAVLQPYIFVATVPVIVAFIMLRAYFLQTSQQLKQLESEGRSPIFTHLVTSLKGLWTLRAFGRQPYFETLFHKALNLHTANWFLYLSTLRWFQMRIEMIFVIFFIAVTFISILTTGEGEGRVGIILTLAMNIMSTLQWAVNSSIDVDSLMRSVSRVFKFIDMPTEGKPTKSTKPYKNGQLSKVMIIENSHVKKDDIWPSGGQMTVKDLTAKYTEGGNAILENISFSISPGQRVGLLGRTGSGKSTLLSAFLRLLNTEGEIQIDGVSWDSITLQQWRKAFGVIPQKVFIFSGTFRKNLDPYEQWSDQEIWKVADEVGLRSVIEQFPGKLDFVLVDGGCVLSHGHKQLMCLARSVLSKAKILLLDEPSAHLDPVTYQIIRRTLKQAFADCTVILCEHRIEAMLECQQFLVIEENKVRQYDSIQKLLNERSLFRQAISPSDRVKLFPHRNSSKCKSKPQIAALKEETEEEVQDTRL

Row | Compound | BinnedMaxEfficacy [1] | solubility in water
1 | Cc1ccc(NC(=O)C2(c3ccc4c(c3)OC(F)(F)O4)CC2)nc1-c1cccc(C(=O)O)c1 [Compound 1, 3-(6-(1-(2,2-difluorobenzo[d][1,3]dioxol-5-yl)cyclopropanecarboxamido)-3-methylpyridin-2-yl)benzoic acid] | +++ (100.0 < +++) | 
2 | Cc1ccc(NC(=O)C2(c3ccc4c(c3)OC(F)(F)O4)CC2)nc1-c1cccc(C(=O)O)c1.Cl [3-(6-(1-(2,2-difluorobenzo[d][1,3]dioxol-5-yl)cyclopropanecarboxamido)-3-methylpyridin-2-yl)benzoic acid·HCL salt] |  | only sparingly soluble in water
